According to ChEMBL document CHEMBL2406981, “Novel pyrazoline amidoxime and their 1,2,4-oxadiazole analogues: synthesis and pharmacological screening” (Bioorg Med Chem Lett, 2013):
Values after ≈ are worked out from the molar mass of the structure shown.

Assays:
Assay type in all cases: functional
Klebsiella pneumoniae [1] = assay: Antimicrobial activity against Klebsiella pneumoniae MTCC 3384 at 50 ug/ml after 24 hrs by agar disc diffusion method; settings: MTCC 3384, 24 h, read-out: DIZ
[2] = Antiinflammatory activity against heat-induced albumin denaturation at […] preincubated for 15 mins before heat induction by UV-vis spectrophotometer analysis
[3] = Antioxidant activity against ferric chloride-induced lipid peroxidation using egg lecithin at 50 ug/ml after 1 hr
Aspergillus flavus [4] = assay: Antimicrobial activity against Aspergillus flavus MTCC 873 at 100 ug/ml after 24 hrs by agar disc diffusion method; settings: MTCC 873, 24 h, read-out: DIZ
Aspergillus flavus [5] = assay: Antimicrobial activity against Aspergillus flavus MTCC 873
Shigella flexneri [6] = assay: Antimicrobial activity against Shigella flexneri MTCC 1457 at 100 ug/ml after 24 hrs by agar disc diffusion method; settings: MTCC 1457, 24 h, read-out: DIZ
[7] = system: Radical scavenging activity; assay: Antioxidant activity assessed as DPPH free radical scavenging activity at 10 ug/ml after 20 mins
Aspergillus niger [8] = assay: Antimicrobial activity against Aspergillus niger MTCC 281
[9] = system: Radical scavenging activity; assay: Antioxidant activity assessed as DPPH free radical scavenging activity at 50 ug/ml after 20 mins
Shigella flexneri [10] = assay: Antimicrobial activity against Shigella flexneri MTCC 1457 at 50 ug/ml after 24 hrs by agar disc diffusion method; settings: MTCC 1457, 24 h, read-out: DIZ
Bacillus cereus [11] = assay: Antimicrobial activity against Bacillus cereus MTCC 8372
Staphylococcus aureus [12] = assay: Antimicrobial activity against Staphylococcus aureus MTCC 96 at 50 ug/ml after 24 hrs by agar disc diffusion method; settings: MTCC 96, 24 h, read-out: DIZ
Klebsiella pneumoniae [13] = assay: Antimicrobial activity against Klebsiella pneumoniae MTCC 3384
Bacillus cereus [14] = assay: Antimicrobial activity against Bacillus cereus MTCC 8372 at 50 ug/ml after 24 hrs by agar disc diffusion method; settings: MTCC 8372, 24 h, read-out: DIZ
Escherichia coli [15] = assay: Antimicrobial activity against Escherichia coli MTCC 724 at 50 ug/ml after 24 hrs by agar disc diffusion method; settings: MTCC 724, 24 h, read-out: DIZ
[16] = Antioxidant activity against ferric chloride-induced lipid peroxidation using egg lecithin at 100 ug/ml after 1 hr
[17] = Antioxidant activity against ferric chloride-induced lipid peroxidation using egg lecithin at 10 ug/ml after 1 hr
Klebsiella pneumoniae [18] = assay: Antimicrobial activity against Klebsiella pneumoniae MTCC 3384 at 100 ug/ml after 24 hrs by agar disc diffusion method; settings: MTCC 3384, 24 h, read-out: DIZ
[19] = Antioxidant activity assessed as reducing power of ferric ion at 100 ug/ml after 20 mins; design: scale not given: the % may be the effect or the level left
[20] = Antioxidant activity assessed as reducing power of ferric ion at 50 ug/ml after 20 mins; design: scale not given: the % may be the effect or the level left
Aspergillus niger [21] = assay: Antimicrobial activity against Aspergillus niger MTCC 281 at 50 ug/ml after 24 hrs by agar disc diffusion method; settings: MTCC 281, 24 h, read-out: DIZ
Aspergillus flavus [22] = assay: Antimicrobial activity against Aspergillus flavus MTCC 873 at 50 ug/ml after 24 hrs by agar disc diffusion method; settings: MTCC 873, 24 h, read-out: DIZ
Staphylococcus aureus [23] = assay: Antimicrobial activity against Staphylococcus aureus MTCC 96
[24] = Antioxidant activity assessed as reducing power of ferric ion at 10 ug/ml after 20 mins; design: scale not given: the % may be the effect or the level left
Escherichia coli [25] = assay: Antimicrobial activity against Escherichia coli MTCC 724
Shigella flexneri [26] = assay: Antimicrobial activity against Shigella flexneri MTCC 1457
Escherichia coli [27] = assay: Antimicrobial activity against Escherichia coli MTCC 724 at 100 ug/ml after 24 hrs by agar disc diffusion method; settings: MTCC 724, 24 h, read-out: DIZ
Bacillus cereus [28] = assay: Antimicrobial activity against Bacillus cereus MTCC 8372 at 100 ug/ml after 24 hrs by agar disc diffusion method; settings: MTCC 8372, 24 h, read-out: DIZ
Staphylococcus aureus [29] = assay: Antimicrobial activity against Staphylococcus aureus MTCC 96 at 100 ug/ml after 24 hrs by agar disc diffusion method; settings: MTCC 96, 24 h, read-out: DIZ
[30] = system: Radical scavenging activity; assay: Antioxidant activity assessed as DPPH free radical scavenging activity at 100 ug/ml after 20 mins
Aspergillus niger [31] = assay: Antimicrobial activity against Aspergillus niger MTCC 281 at 100 ug/ml after 24 hrs by agar disc diffusion method; settings: MTCC 281, 24 h, read-out: DIZ

Compound: COc1ccc(C2=NN(c3ccccc3)C(c3noc(-c4ccc(OC)c(OC)c4)n3)C2)cc1 (centres undefined)
- zone of inhibition at 50 µg/mL (Klebsiella pneumoniae [1]): 8 mm
- inhibition [2]: 29.9%
- inhibition [3]: 49%
- zone of inhibition at 100 µg/mL (Aspergillus flavus [4]): 20 mm
- MIC (Aspergillus flavus [5]): 10 µg/mL (≈ 21.9 µM)
- zone of inhibition at 100 µg/mL (Shigella flexneri [6]): 24 mm
- Activity [7]: 29%
- MIC (Aspergillus niger [8]): 10 µg/mL (≈ 21.9 µM)
- Activity [9]: 48%
- zone of inhibition at 50 µg/mL (Shigella flexneri [10]): 10 mm
- MIC (Bacillus cereus [11]): 10 µg/mL (≈ 21.9 µM)
- zone of inhibition at 50 µg/mL (Staphylococcus aureus [12]): 10 mm
- MIC (Klebsiella pneumoniae [13]): 20 µg/mL (≈ 43.8 µM)
- zone of inhibition at 50 µg/mL (Bacillus cereus [14]): 12 mm
- zone of inhibition at 50 µg/mL (Escherichia coli [15]): 8 mm
- inhibition [16]: 76%
- inhibition [17]: 34%
- zone of inhibition at 100 µg/mL (Klebsiella pneumoniae [18]): 18 mm
- Activity [19]: 74%
- Activity [20]: 23%
- zone of inhibition at 50 µg/mL (Aspergillus niger [21]): 16 mm
- zone of inhibition at 50 µg/mL (Aspergillus flavus [22]): 16 mm
- MIC (Staphylococcus aureus [23]): 15 µg/mL (≈ 32.9 µM)
- Activity [24]: 13%
- MIC (Escherichia coli [25]): 20 µg/mL (≈ 43.8 µM)
- MIC (Shigella flexneri [26]): 15 µg/mL (≈ 32.9 µM)
- zone of inhibition at 100 µg/mL (Escherichia coli [27]): 16 mm
- zone of inhibition at 100 µg/mL (Bacillus cereus [28]): 16 mm
- zone of inhibition at 100 µg/mL (Staphylococcus aureus [29]): 18 mm
- Activity [30]: 67%
- zone of inhibition at 100 µg/mL (Aspergillus niger [31]): 30 mm

Compound: N/C(=N\O)C1CC(c2ccc(Cl)cc2)=NN1c1ccccc1 (centres undefined)
- zone of inhibition at 50 µg/mL (Klebsiella pneumoniae [1]): 8 mm
- inhibition [2]: 59.1%
- inhibition [3]: 12%
- zone of inhibition at 100 µg/mL (Aspergillus flavus [4]): 10 mm
- MIC (Aspergillus flavus [5]): 25 µg/mL (≈ 79.4 µM)
- zone of inhibition at 100 µg/mL (Shigella flexneri [6]): 12 mm
- Activity [7]: 29%
- MIC (Aspergillus niger [8]): 20 µg/mL (≈ 63.5 µM)
- Activity [9]: 39%
- zone of inhibition at 50 µg/mL (Shigella flexneri [10]): 8 mm
- MIC (Bacillus cereus [11]): 30 µg/mL (≈ 95.3 µM)
- zone of inhibition at 50 µg/mL (Staphylococcus aureus [12]): 3 mm
- MIC (Klebsiella pneumoniae [13]): 20 µg/mL (≈ 63.5 µM)
- zone of inhibition at 50 µg/mL (Bacillus cereus [14]): 4 mm
- zone of inhibition at 50 µg/mL (Escherichia coli [15]): 3 mm
- inhibition [16]: 14%
- inhibition [17]: 18%
- zone of inhibition at 100 µg/mL (Klebsiella pneumoniae [18]): 10 mm
- Activity [19]: 68%
- Activity [20]: 28%
- zone of inhibition at 50 µg/mL (Aspergillus niger [21]): 8 mm
- zone of inhibition at 50 µg/mL (Aspergillus flavus [22]): 6 mm
- MIC (Staphylococcus aureus [23]): 40 µg/mL (≈ 127 µM)
- Activity [24]: 11%
- MIC (Escherichia coli [25]): 40 µg/mL (≈ 127 µM)
- MIC (Shigella flexneri [26]): 20 µg/mL (≈ 63.5 µM)
- zone of inhibition at 100 µg/mL (Escherichia coli [27]): 10 mm
- zone of inhibition at 100 µg/mL (Bacillus cereus [28]): 8 mm
- zone of inhibition at 100 µg/mL (Staphylococcus aureus [29]): 5 mm
- Activity [30]: 69%
- zone of inhibition at 100 µg/mL (Aspergillus niger [31]): 8 mm

Compound: Clc1ccc(-c2nc(C3CC(c4ccccc4)=NN3c3ccccc3)no2)cc1 (centres undefined)
- zone of inhibition at 50 µg/mL (Klebsiella pneumoniae [1]): 5 mm
- inhibition [2]: 53.7%
- inhibition [3]: 48%
- zone of inhibition at 100 µg/mL (Aspergillus flavus [4]): 14 mm
- MIC (Aspergillus flavus [5]): 10 µg/mL (≈ 24.9 µM)
- zone of inhibition at 100 µg/mL (Shigella flexneri [6]): 10 mm
- Activity [7]: 23%
- MIC (Aspergillus niger [8]): 10 µg/mL (≈ 24.9 µM)
- Activity [9]: 42%
- zone of inhibition at 50 µg/mL (Shigella flexneri [10]): 6 mm
- MIC (Bacillus cereus [11]): 25 µg/mL (≈ 62.4 µM)
- zone of inhibition at 50 µg/mL (Staphylococcus aureus [12]): 8 mm
- MIC (Klebsiella pneumoniae [13]): 30 µg/mL (≈ 74.8 µM)
- zone of inhibition at 50 µg/mL (Bacillus cereus [14]): 6 mm
- zone of inhibition at 50 µg/mL (Escherichia coli [15]): 4 mm
- inhibition [16]: 73%
- inhibition [17]: 34%
- zone of inhibition at 100 µg/mL (Klebsiella pneumoniae [18]): 8 mm
- Activity [19]: 65%
- Activity [20]: 22%
- zone of inhibition at 50 µg/mL (Aspergillus niger [21]): 11 mm
- zone of inhibition at 50 µg/mL (Aspergillus flavus [22]): 12 mm
- MIC (Staphylococcus aureus [23]): 20 µg/mL (≈ 49.9 µM)
- Activity [24]: 12%
- MIC (Escherichia coli [25]): 30 µg/mL (≈ 74.8 µM)
- MIC (Shigella flexneri [26]): 25 µg/mL (≈ 62.4 µM)
- zone of inhibition at 100 µg/mL (Escherichia coli [27]): 18 mm
- zone of inhibition at 100 µg/mL (Bacillus cereus [28]): 10 mm
- zone of inhibition at 100 µg/mL (Staphylococcus aureus [29]): 10 mm
- Activity [30]: 67%
- zone of inhibition at 100 µg/mL (Aspergillus niger [31]): 20 mm

Compound: COc1ccccc1-c1nc(C2CC(c3ccccc3)=NN2c2ccccc2)no1 (centres undefined)
- zone of inhibition at 50 µg/mL (Klebsiella pneumoniae [1]): 3 mm
- inhibition [2]: 23.9%
- inhibition [3]: 31%
- zone of inhibition at 100 µg/mL (Aspergillus flavus [4]): 12 mm
- MIC (Aspergillus flavus [5]): 15 µg/mL (≈ 37.8 µM)
- zone of inhibition at 100 µg/mL (Shigella flexneri [6]): 8 mm
- Activity [7]: 14%
- MIC (Aspergillus niger [8]): 20 µg/mL (≈ 50.4 µM)
- Activity [9]: 34%
- zone of inhibition at 50 µg/mL (Shigella flexneri [10]): 3 mm
- MIC (Bacillus cereus [11]): 55 µg/mL (≈ 139 µM)
- zone of inhibition at 50 µg/mL (Staphylococcus aureus [12]): 2 mm
- MIC (Klebsiella pneumoniae [13]): 55 µg/mL (≈ 139 µM)
- zone of inhibition at 50 µg/mL (Bacillus cereus [14]): 2 mm
- zone of inhibition at 50 µg/mL (Escherichia coli [15]): 4 mm
- inhibition [16]: 60%
- inhibition [17]: 11%
- zone of inhibition at 100 µg/mL (Klebsiella pneumoniae [18]): 6 mm
- Activity [19]: 54%
- Activity [20]: 22%
- zone of inhibition at 50 µg/mL (Aspergillus niger [21]): 8 mm
- zone of inhibition at 50 µg/mL (Aspergillus flavus [22]): 10 mm
- MIC (Staphylococcus aureus [23]): 55 µg/mL (≈ 139 µM)
- Activity [24]: 10%
- MIC (Escherichia coli [25]): 35 µg/mL (≈ 88.3 µM)
- MIC (Shigella flexneri [26]): 50 µg/mL (≈ 126 µM)
- zone of inhibition at 100 µg/mL (Escherichia coli [27]): 6 mm
- zone of inhibition at 100 µg/mL (Bacillus cereus [28]): 8 mm
- zone of inhibition at 100 µg/mL (Staphylococcus aureus [29]): 6 mm
- Activity [30]: 44%
- zone of inhibition at 100 µg/mL (Aspergillus niger [31]): 14 mm
